Results from article PMC9589286, “Ruthenium polypyridine complexes with triphenylamine groups as antibacterial agents against Staphylococcus aureus with membrane-disruptive mechanism” (Frontiers in Chemistry, 2022).

Key:
[1] = tested on: Staphylococcus aureus biofilm; assay: Biofilm formation, crystal violet staining; type: cell-based
Procedure: 24 well plate was used for biofilm determination. The overnight cultured Staphylococcus aureus strain was diluted 1000 times with fresh TSB medium. Then 2 ml of that diluted bacterial solution was mixed with 500 µL Ru-3 of different concentrations in a 24 well plate. After incubation at 37°C for 48 h, the bacterial suspension was removed and the plate was washed three times with PBS. The adherent bacteria were dried overnight at 37°C and then dyed through 0.1% crystal violet solution. After 2 min, taking out the crystal violet solution and wash the plate with PBS again. And then, adding 1 ml acetic acid and 1 ml water, the formation of biofilm can be determined by monitoring the absorbance at 595 nm.

Galleria mellonella = assay: Toxicity in insect model Galleria mellonella; type: in vivo; details: 64 mg kg^−1, larvae, 120 h
Procedure: Based on the excellent antibacterial effect of Ru-3 in vitro, its biosafety was further evaluated. Firstly, the hemolytic activity of ruthenium complexes on rabbit red blood cells was measured to study their toxicity. […] In view of its good compatibility with mammalian red blood cells, the toxicity of Ru-3 to eukaryotes was also studied. Herein, Ru-3 was tested with Gallery melonella larvae. […] When the concentration of Ru-3 was 64 mg kg^−1, the survival rate was still 75%.
FIGURE 15 Test results of Ru compounds toxicity (A) % hemolysis at 256 μg ml^−1 of Ru compounds. (B) Kaplan-Meier survival curves. […] The larvae were incubated at 37.5°C and live/dead scores were conducted at 120 h (C) H&E staining images of the infected tissues with different treatments.

[2] = tested on: Staphylococcus aureus hemolysin; assay: Toxin (hemolysin) secretion, rabbit blood cell hemolysis by culture supernatant; type: cell-based
Procedure: Firstly, S. aureus was cultured overnight and diluted 1000 times with fresh TSB, then a mixture of Ru-3 of 1 μg ml^−1 or 2 μg ml^−1 and Staphylococcus aureus solution was cultured in a shaking Table at 37°C for 18 h. After culturing, centrifuging (5000 rpm, 2 min) Staphylococcus aureus solution. And rabbit blood cells were prepared with PBS buffer (washing rabbit blood three times). Blood cells were collected by centrifugation (2000 rpm, 2 min). Secondly, a mixture containing 1 ml PBS buffer, 150 μL supernatant and 25 μL blood cells was cultured at 37°C for 30 min. Then cultured supernatant was obtained by centrifugation (2000 rpm, room temperature, 2 min). Finally, the optical density of the supernatant was measured at 540 nm.

BALB/c mice = assay: Acute skin irritation test, H&E; type: in vivo; details: 0.05 and 0.1 mg ml^−1, once a day for 3 days, topical
Procedure: Female BALB/c mice were randomly divided into three groups, control group, Ru-3 (0.05 mg ml^−1) group and Ru-3 (0.1 mg ml^−1). The day before the experiment, the hair on the back of female mice was removed. The compound and distilled water control were gently attached to the shaving site (about 2 cm^2) once a day for 3 days. On the fourth day, the mice were killed by cervical dislocation. The skin tissue at the site of infections were taken out and fixed in 4% paraformaldehyde at 4°C for 1 day, then embedded in paraffin. Serial sections were prepared for H&E analysis.

[Ru(dmb)2PMA] (PF6)2 [Ru-3]
biofilm formation reduced by ([1]; 1 μg ml^−1, 48 h): 27% | Nomalized Biofilm formation ([1]; 1 μg/mL): 73% | biofilm formation reduced by ([1]; 2 μg ml^−1, 48 h): 41% | Nomalized Biofilm formation ([1]; 2 μg/mL): 59% | survival rate (Galleria mellonella): 75% | Toxin reduced by ([2]; 1 μg ml^−1): 38% | Toxin reduced by ([2]; 2 μg ml^−1): 63% | skin irritation, H&E pathological changes (BALB/c mice): no obvious pathological abnormalities
